The record followed here is US20240368096A1 (Enanta Pharmaceuticals, Inc., priority 2022, published 2024).

A word on the EC50: it is the concentration needed to bring the measured effect to its halfway point.

The assay relates to HBV. Briefly: HBV infection in HepG2-NTCP cells (HBeAg AlphaLISA in supernatants). In kind it is cell-based. To be noted: Hepatitis B virus, 192 h; HBV infection of HepG2-NTCP cells; HBeAg in supernatants at day 8 post infection; read-out: Cellular EC50. The essentials:
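HepG2-NTCP A3 cells were pre-incubated 2 h with 3-fold serially diluted compounds, then infected with HBV at 2000 GE/cell with 4% PEG (0.5% DMSO final). After washing on day 1, cells stayed in 2.5% DMSO medium; supernatant HBeAg measured by AlphaLISA on day 8, EC50 versus DMSO controls.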
On the technique in general: Alpha assays give light when donor and acceptor beads are brought close together.

Molecules are shown by their SMILES.

In the case of `COc1cc(F)ccc1Oc1cc2c(cc1-c1ccc(F)c(C(=O)O)c1)S(=O)(=O)N(C)[C@H](C1CCCCC1)CN2c1ccccc1` [Example 406], the EC50 was below 0.1 µM.

As for `CN1[C@H](C2CCC2)CN(c2ccccc2)c2cc(Cl)c(-c3ccc(C(F)(F)F)c(C(=O)O)c3)cc2S1(=O)=O` [Example 204], the EC50 was below 0.1 µM.

Regarding `COCC(C)(C)COC(=O)Nc1cc(-c2cc3c(cc2Cl)N(c2ccccc2)C[C@@H](C2CCCCC2)N(C)S3(=O)=O)sc1C(=O)O` [Example 260], the EC50 was 0.1 to 1 µM.

On to `CN1[C@H](C2CCCCC2)CN(c2ccccc2)c2cc(-n3ccccc3=O)c(-c3ccc(F)c(C(=O)O)c3)cc2S1(=O)=O` [Example 530], for which the EC50 was above 1 µM.

On to `CN1[C@H](C2CCCCC2)CN(c2ccccc2)c2cc(Cl)c(-c3cc(C(=O)O)nn3C)cc2S1(=O)=O` [Example 133, (R)-5-(7-chloro-3-cyclohexyl-2-methyl-1,1-dioxido-5-phenyl-2,3,4,5-tetrahydrobenzo[f][1,2,5]thiadiazepin-8-yl)-1-methyl-1H-pyrazole-3-carboxylic acid], for which the EC50 was 0.1 to 1 µM.

`CC(C)C[C@@H]1CN(c2ccccc2)c2cc(-c3cccc(F)c3)c(-c3ccc(F)c(C(=O)O)c3)cc2S(=O)(=O)N1C` [Example 575]: the EC50 was below 0.1 µM.

Consider `CN1[C@H](CN=[N+]=[N-])CN(c2ccccc2)c2cc(Cl)c(-c3ccc(F)c(C(=O)O)c3)cc2S1(=O)=O` [Example 99, (S)-5-(3-(azidomethyl)-7-chloro-2-methyl-1,1-dioxido-5-phenyl-2,3,4,5-tetrahydrobenzo[f][1,2,5]thiadiazepin-8-yl)-2-fluorobenzoic acid], for which the EC50 is above 1 µM.

For `CN1[C@H](C2CCC(F)(F)CC2)CN(c2ccccc2)c2cc(Cl)c(-c3ccc(F)c(C(=O)O)c3)cc2S1(=O)=O` [Example 27], the EC50 is 0.1 to 1 µM.

With `CC(C)CCOc1cc2c(cc1-c1ccc(F)c(C(=O)O)c1)S(=O)(=O)N(C)[C@H](C1CCCCC1)CN2c1ccccc1` [Example 359], the EC50 was below 0.1 µM.

On to `CN1[C@H](C2CCCCC2)CN(c2ccccc2)c2cc(OCC3CC(F)(F)C3)c(-c3ccc(F)c(C(=O)O)c3)cc2S1(=O)=O` [Example 363], for which the EC50 is below 0.1 µM.

On to `CCC1CN(c2ccccc2)c2cc(Cl)c(-c3ccc(Cl)c(C(=O)O)c3)cc2S(=O)(=O)N1C` (stereo not drawn) [Example 46], for which the EC50 is 0.1 to 1 µM.

Turning to `CC(C)C[C@@H]1CN(c2ccccc2)c2cc(OCC(F)(F)F)c(-c3ccc(F)c(C(=O)O)c3)cc2S(=O)(=O)N1C` [Example 453], the EC50 is below 0.1 µM.

In the case of `CN1[C@H](C2CCCCC2)CN(c2ccccc2)c2cc(OCc3cnco3)c(-c3ccc(F)c(C(=O)O)c3)cc2S1(=O)=O` [Example 343], the EC50 lay within 0.1 to 1 µM.

As to `CC(C)C[C@@H]1CN(c2ccccc2)c2cc(Nc3ccc(F)cc3)c(-c3ccc(Cl)c(C(=O)O)c3)cc2S(=O)(=O)N1C` [Example 548], the concentration giving a half-maximal response (EC50) lay in the range of 0.1 to 1 µM.

For `CC(C)C[C@@H]1CN(c2ccccc2)c2cc(N(C)c3cccc(F)c3)c(-c3ccc(Cl)c(C(=O)O)c3)cc2S(=O)(=O)N1C` [Example 555], the EC50 fell in the range of 0.1 to 1 µM.

As for `O=C(O)c1cccc(-c2cc3c(cc2F)N(c2ccccc2)C[C@@H]2C[C@H](C(F)(F)F)CN2S3(=O)=O)c1` [Example 11], the EC50 was above 1 µM.

Consider `CN1[C@H](C2CCCCC2)CN(c2ccccc2)c2cc(Cl)c(-c3cc(NC(=O)OC(C)(C)C)c(C(=O)O)s3)cc2S1(=O)=O` [Example 238, (R)-3-((tert-butoxycarbonyl)amino)-5-(7-chloro-3-cyclohexyl-2-methyl-1,1-dioxido-5-phenyl-2,3,4,5-tetrahydrobenzo[f][1,2,5]thiadiazepin-8-yl)thiophene-2-carboxylic acid], for which the EC50 was in the range of 0.1 to 1 µM.

With `CN1[C@H](C2CCCCC2)CN(c2cc(F)c(F)c(F)c2)c2cc(Cl)c(-c3ccc(F)c(C(=O)O)c3)cc2S1(=O)=O` [Example 298], the EC50 was 0.1 to 1 µM.

For `COCCOc1cc2c(cc1-c1cc(NC(=O)OCCOC(C)C)c(C(=O)O)s1)S(=O)(=O)N(C)[C@H](C1CCCCC1)CN2c1ccccc1` [Example 518, (R)-5-(3-cyclohexyl-7-(2-methoxyethoxy)-2-methyl-1,1-dioxido-5-phenyl-2,3,4,5-tetrahydrobenzo[f][1,2,5]thiadiazepin-8-yl)-3-(((2-isopropoxyethoxy)carbonyl)amino)thiophene-2-carboxylic acid], the EC50 is below 0.1 µM.

Consider `CC(=O)N1CCN(c2cc3c(cc2-c2ccc(F)c(C(=O)O)c2)S(=O)(=O)N(C)[C@H](C2CCCCC2)CN3c2ccccc2)CC1` [Example 535], for which the EC50 fell in the range of 0.1 to 1 µM.

In the case of `CN1[C@H](C2CCCCC2)CNc2cc(-c3cccnc3)c(-c3ccc(F)c(C(=O)O)c3)cc2S1(=O)=O` [Example 572], the EC50 was 0.1 to 1 µM.

Consider `CN1[C@H](C2CCCCC2)CN(c2ccccc2)c2cc(OC3CC4(CC4)C3)c(-c3ccc(F)c(C(=O)O)c3)cc2S1(=O)=O` [Example 385], for which the EC50 is below 0.1 µM.

As to `COc1ccc(N2C[C@@H](C3CCCCC3)N(C)S(=O)(=O)c3cc(-c4ccc(F)c(C(=O)O)c4)c(Cl)cc32)cc1` [Example 306, (R)-5-(7-chloro-3-cyclohexyl-5-(4-methoxyphenyl)-2-methyl-1,1-dioxido-2,3,4,5-tetrahydrobenzo[f][1,2,5]thiadiazepin-8-yl)-2-fluorobenzoic acid], the EC50 was 0.1 to 1 µM.

As to `CCCCCCCC[C@@H]1CN(c2ccccc2)c2cc(Cl)c(-c3cc(F)c(F)c(C(=O)O)c3)cc2S(=O)(=O)N1C` [Example 83], the EC50 was above 1 µM.

Turning to `CN1[C@H](C2CCCCC2)CN(c2ccccc2)c2cc(O[C@@H]3CCCNC3)c(-c3ccc(F)c(C(=O)O)c3)cc2S1(=O)=O` [Example 399], the EC50 is above 1 µM.

For the molecule `CN1[C@H](C2CCCCC2)CN(c2ccccc2)c2cc(Cl)c(-c3cc(C(=O)O)[nH]n3)cc2S1(=O)=O` [Example 135, (R)-3-(7-chloro-3-cyclohexyl-2-methyl-1,1-dioxido-5-phenyl-2,3,4,5-tetrahydrobenzo[f][1,2,5]thiadiazepin-8-yl)-1H-pyrazole-5-carboxylic acid], the EC50 is 0.1 to 1 µM.

Regarding `CN1[C@H](CN2CCCC2=O)CN(c2ccccc2)c2cc(Cl)c(-c3ccc(F)c(C(=O)O)c3)cc2S1(=O)=O` [Example 115], the EC50 is above 1 µM.

For the molecule `CC(C)C[C@@H]1CN(c2ccccc2)c2cc(-c3ccc4ncoc4c3)c(-c3ccc(F)c(C(=O)O)c3)cc2S(=O)(=O)N1C` [Example 579], the EC50 was in the range of 0.1 to 1 µM.

In the case of `CC(C)CC1CN(c2ccccc2F)c2cc(Cl)c(-c3cccc(C(=O)O)c3)cc2S(=O)(=O)N1C` (stereo not drawn) [Example 330], the EC50 lay within 0.1 to 1 µM.

For the molecule `CN1[C@H](C2CCCCC2)CN(c2ccccc2)c2cc(OCCOC3CC3)c(-c3cc(F)c(C(=O)O)s3)cc2S1(=O)=O` [Example 496], the EC50 was below 0.1 µM.

Turning to `CC(C)C[C@@H]1CN(c2ccccc2)c2cc(N(C)c3ccccc3F)c(-c3ccc(Cl)c(C(=O)O)c3)cc2S(=O)(=O)N1C` [Example 556], the EC50 is 0.1 to 1 µM.

With `CCCC[C@@H]1CN(c2ccccc2)c2cc(Nc3ccccc3F)c(-c3cc(F)c(F)c(C(=O)O)c3)cc2S(=O)(=O)N1C` [Example 560, (R)-5-(3-butyl-7-((2-fluorophenyl)amino)-2-methyl-1,1-dioxido-5-phenyl-2,3,4,5-tetrahydrobenzo[f][1,2,5]thiadiazepin-8-yl)-2,3-difluorobenzoic acid], the EC50 is below 0.1 µM.

For `CN1[C@H](C2CCCCC2)CN(c2ccccc2)c2cc(Cl)c(-c3cc(Cl)c(C(=O)O)s3)cc2S1(=O)=O` [Example 117], the EC50 is below 0.1 µM.

With `CC(C)CC1CN(c2ccccc2)c2cc(N3CCCC3)c(-c3cccc(C(=O)O)c3)cc2S(=O)(=O)N1C` (stereo not drawn) [Example 544], the EC50 fell in the range of 0.1 to 1 µM.

As to `CN1[C@H](C2CCCCC2)CN(c2ccccc2)c2cc(OCC3CCN(C(=O)OC(C)(C)C)CC3)c(-c3ccc(F)c(C(=O)O)c3)cc2S1(=O)=O` [Example 366], the EC50 was below 0.1 µM.

For `CC(C)C[C@@H]1CN(c2ccccc2)c2cc(Cl)c(-c3cccc(S(=O)(=O)O)c3)cc2S(=O)(=O)N1C` [Example 230], the EC50 is 0.1 to 1 µM.

As for `CCCC[C@@H]1CN(c2ccccc2)c2cc(Oc3cccc(Cl)c3)c(-c3ccc(F)c(C(=O)O)c3)cc2S(=O)(=O)N1C` [Example 423], the EC50 was below 0.1 µM.

For the molecule `CN1[C@H](C2CCCCC2)CN(c2ccccc2)c2cc(Cl)c(-c3ccc(NC(=O)Nc4ccccc4)c(C(=O)O)c3)cc2S1(=O)=O` [Example 237, (R)-5-(7-chloro-3-cyclohexyl-2-methyl-1,1-dioxido-5-phenyl-2,3,4,5-tetrahydrobenzo[f][1,2,5]thiadiazepin-8-yl)-2-(3-phenylureido)benzoic acid], the EC50 was below 0.1 µM.

As to `CN1[C@H](C2CCCCC2)CN(c2ccc(F)cc2)c2cc(Cl)c(-c3ccc(F)c(C(=O)O)c3)cc2S1(=O)=O` [Example 294], the EC50 was 0.1 to 1 µM.

With `CCOc1cccc(N2C[C@@H](C3CCCCC3)N(C)S(=O)(=O)c3cc(-c4ccc(F)c(C(=O)O)c4)c(Cl)cc32)c1` [Example 308], the EC50 is below 0.1 µM.

As for `CCCCC1CN(c2ccccc2)c2cc(CNc3ccccc3F)c(-c3ccc(F)c(C(=O)O)c3)cc2S(=O)(=O)N1C` (stereo not drawn) [Example 565], the EC50 was 0.1 to 1 µM.

Regarding `CC(C)CC1CN(c2ccc(F)cc2)c2cc(Cl)c(-c3cccc(C(=O)O)c3)cc2S(=O)(=O)N1C` (stereo not drawn) [Example 331], the EC50 fell in the range of 0.1 to 1 µM.

Turning to `CN1[C@H](COc2ccccc2)CN(c2ccccc2)c2cc(Cl)c(-c3ccc(F)c(C(=O)O)c3)cc2S1(=O)=O` [Example 100, (S)-5-(7-chloro-2-methyl-1,1-dioxido-3-(phenoxymethyl)-5-phenyl-2,3,4,5-tetrahydrobenzo[f][1,2,5]thiadiazepin-8-yl)-2-fluorobenzoic acid], the EC50 is above 1 µM.

On to `CN1[C@H](C2CCCCC2)CN(c2ccccc2)c2cc(Cl)c(-c3cc(C(=O)O)c4cc[nH]c4c3)cc2S1(=O)=O` [Example 209], for which the EC50 was in the range of 0.1 to 1 µM.

Regarding `CCCCC[C@@H](C)Oc1cc2c(cc1-c1ccc(F)c(C(=O)O)c1)S(=O)(=O)N(C)[C@H](C1CCCCC1)CN2c1ccccc1` [Example 355], the EC50 is below 0.1 µM.
